Test results reported in US20170270277A1, “METHOD FOR SUPERVISING CONSUMPTION OF A MEDICAL FOOD FOR PREVENTION AND/OR MANAGEMENT OF A DISEASE OR CONDITION” (Photonz Corporation Ltd., priority 2012, published 2017).

Experiment: Laboratory test of the patient's serum lipids after consumption of the medical food, change from baseline (Example 4)
Format: in vivo
Conditions: 'one or more of'
Source text: “Blood data” as used herein includes levels of cholesterol, diglycerides and triglycerides amongst other parameters described herein. Blood data parameters can be measured in accordance with any clinically acceptable methodology. For example, triglycerides, total cholesterol, HDL-C and fasting blood sugar can be sampled from serum and analyzed using standard photometry techniques. VLDL-TG, LDL-C and VLDL-C can be calculated or determined using serum lipoprotein fractionation by preparative ultracentrifugation and subsequent quantitative analysis by refractometry or by analytic ultracentrifugal methodology. Apo AI, Apo B and hsCRP can be determined from serum using standard nephelometry techniques. Lipoprotein (a) can be determined from serum using standard turbidimetric immunoassay techniques. LDL particle number and particle size can be determined using nuclear magnetic resonance (NMR) spectrometry. Remnants lipoproteins and LDL-phospholipase A2 can be determined from EDTA plasma or serum and serum, respectively, using enzymatic immunoseparation techniques. Oxidized LDL, intercellular adhesion molecule-1 and interleukin-6 levels can be determined from serum using standard enzyme immunoassay techniques. These techniques are described in detail in standard textbooks, for example Tietz Fundamentals of Clinical Chemistry, 6th Ed. (Burtis, Ashwood and Borter Eds.), WB Saunders Company. In one embodiment, subjects fast for up to 12 hours prior to blood sample collection, for example about 10 hours.
This is a further example of one particular embodiment of practicing the invention. The results presented in this example are expected to be generated.
A patient is concerned about maintaining good cardiovascular health and advises a medical professional of this desire. The patient may be risk of developing or be diagnosed of having mixed dyslipidemia, hyperlipidemia and hypertriglyceridemia.
The medical professional sets up a laboratory in accordance with clinically acceptable methodologies to determine the patient's serum lipids including triglycerides, total cholesterol, HDL cholesterol, LDL cholesterol and fasting blood sugar. The patient may have one or more of: a baseline triglyceride level of about 300 mg/dl to about 1500 mg/dl; baseline non-HDL-C value of about 200 mg/dl to about 400 mg/dl; baseline total cholesterol value of about 250 mg/dl to about 400 mg/dl; baseline vLDL-C value of about 140 mg/dl to about 200 mg/dl; baseline HDL-C value of about 10 to about 60 mg/dl; and/or baseline LDL-C value of about 50 to about 300 mg/dl.
Additional patient registration data including age, sex, weight, relative level of fitness and health, history of illness, family history of illness, and current prescribed pharmaceutical medications and medical foods and dosages, are also accumulated as a data set on a back end computer. The medical professional queries the backend computer about the patient's laboratory data and lifestyle metrics and this back end computer calculates the dose of the EPA-ethyl ester to be provided to the patient as a medical food for a certain period of time based on the analyzed metrics in order for that patient's serum lipids to be returned to normal levels with a low risk of cardiovascular disease. […]
After consumption of the medical food for the specified period of time, the patient receives another laboratory test of their serum lipids and the data is analyzed for changes from the original baseline on the back end computer. […]

[1] = same patient and medical food dosing

Compound: CC/C=C\C/C=C\C/C=C\C/C=C\C/C=C\CCCC(=O)OCC [EPA-ethyl ester, eicosapentaenoyl-ethyl ester]
- triglyceride levels compared to baseline (patient at risk of or with mixed dyslipidemia, hyperlipidemia, hypertriglyceridemia, 1 to 4 g of at least 60% pure EPA-ethyl ester 1 to 4 times per day): reduced
- Apo B levels compared to baseline [1]: reduced
- HDL-C levels compared to baseline [1]: increased
- non-HDL-C levels compared to baseline [1]: a reduction
- vLDL levels compared to baseline [1]: a reduction
